Consider three molecules from patent US11371055B2, “Herbicide resistance genes” (CORTEVA AGRISCIENCE LLC, priority 2005, dated 2022).

Assay [1] concerns F1 stack of AAD-12 (v1) (pDAB4101) and BE1146RR corn. Briefly: Herbicide tolerance of F1 stack AAD-12 (v1) x BE1146RR corn. The format is in vivo, Zea mays. The following applies: 1120 g ae/ha 2,4-D DMA. The source says: AAD-12 (v1) (pDAB4101) and elite Roundup Ready inbred (BE1146RR) were reciprocally crossed and F1 seed was collected. The seed from two F1 lines were planted and treated with 70 g ae/ha imazethapyr at the V2 stage to eliminate nulls. To the surviving plants, reps were separated and either treated with 1120 g ae/ha 2,4-D DMA+70 g ae/ha imazethapyr (to confirm presence of AHAS gene) or 1120 g ae/ha 2,4-D DMA+1680 g ae/ha glyphosate (to confirm the presence of the Round Up Ready gene) in a track sprayer calibrated to 187 L/ha. Plants were graded 3 and 16 DAT.

Assay [2] has as its system T1 AAD-12 (v1) rice lines pDAB4101(20)003 and pDAB4101(27)002. The assay can be described thus: 2,4-D DMA tolerance in T1 rice. The format is in vivo, Oryza sativa. The source says:
(§1) The following T1 AAD-12 (v1) single segregating locus lines were planted into 3-inch pots containing Metro Mix media: pDAB4101(20)003 and pDAB4101(27)002. At 2-3 leaf stage were sprayed with 140 g ae/ha imazethapyr. Nulls were eliminated and individuals were sprayed at V3-V4 stage in the track sprayer set to 187 L/ha at 1120, 2240 or 4480 g ac/ha 2,4-D DMA (2×, 4×, and 8× typical commercial use rates, respectively). Plants were graded at 7 and 14 DAT and compared to untransformed commercial rice cultivar. ‘Lamont,’ as negative control plants.

For assay [3], the system named is untransformed commercial rice cultivar Lamont. The assay can be described thus: 2,4-D DMA tolerance, untransformed rice control. Format: in vivo, Oryza sativa. Particulars: Lemont Untransformed Control.
From the text: as §1

Assay [4] deals with T1, AAD-12 (v2) (Delftia acidovorans, UniProt P83309).
T1 construct: made in house; host or cells: Pseudomonas fluorescens strain MB324 (construct pDAB739)
The assay can be described thus: Chloropyridinol detection assay (absorbance at 325 nm). The format is biochemical. The source says:
AAD-12 action on potential substrates such as the herbicide triclopyr containing a substituted pyridine (rather than benzene rings) will release a pyridinol on cleavage of the aryloxyalkanoate bond. Pyridinols were not detected using the aminoantipyrine/ferricyanide phenol detection described in the preceding section. […] This was used to create a continuous microplate-based spectrophotometric assay.
All five pyridyloxyalkanoates were cleaved to release pyridinols by AAD-12 (v2). The rates for the oxypropionate substrates 116844 and 91767 were somewhat faster than those for the corresponding acetates (triclopyr and 93833 respectively) indicating a preference of AAD-12 (v2) for oxypropionate over oxyacetate side chains.

Assay [5] concerns PHL tobacco suspension co-cultivated with Agrobacterium carrying pDAB724. Briefly: Tobacco cell transformation with AAD-12 (v1) and 2,4-D selection. The format is cell-based. The method, then: For tobacco transformation experiment, there were 11 treatments altogether: a control set plated on LS-BY2C+dichlorprop medium, and 10 sets of LSBY2C+dichlorprop+2,4-D at varying concentration levels (1, 2, 3, 5, 8, 10, 12, 15, 18, 20 mg/L). There were four replications per treatment. The plasmid DNA vector used was pDAB724, and the vector used for transformation was EHA101S strain of Agrobacterium tumefaciens. Four ml of PHL suspension at 0.6 OD^660 were mixed with 100 ul of Agrobacterium (either EHA101 or LBA4404 strains) suspension at 1.0 OD^660 in a sterile Petri plate and were mixed thoroughly and co-cultivated together in a non-shake condition at a dark growth chamber for 3 days at 25° C. After the co-cultivation period 1.5 ml of the Agro-tobacco suspension mixture was plated to the 11 set of plates above. […] Again, there were four replicates per treatment, as well as a positive and negative control. All media contain 500 mg/L Carbenicillin (C) to control to contain Agrobacterium growth in the selection media.
The plasmid used in these experiments is pDAB724 and it has PAT selectable marker as well. So, control transformation experiments were initiated using R-dichlorprop habituated PHL in the presence of 10 mg/L bialophos following the standard protocol described above. […]

T1 sequence (P83309 whole entry, looked up, natural form): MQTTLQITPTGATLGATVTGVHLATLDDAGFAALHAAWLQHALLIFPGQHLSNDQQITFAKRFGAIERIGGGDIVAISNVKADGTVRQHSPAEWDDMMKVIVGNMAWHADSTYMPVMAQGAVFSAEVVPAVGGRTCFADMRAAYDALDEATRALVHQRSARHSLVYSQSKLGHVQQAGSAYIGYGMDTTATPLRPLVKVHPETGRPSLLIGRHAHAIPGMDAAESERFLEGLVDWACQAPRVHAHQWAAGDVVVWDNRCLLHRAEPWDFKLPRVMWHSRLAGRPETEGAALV

Turning to `CNC.O=C(O)COc1ccc(Cl)cc1Cl` [2,4-D DMA], the “Average % Injury 16DAT” value in assay [1] (AAD-12 (v1) pDAB4101(0)003.R003.AF) and in assay [1] (AAD-12 (v1) pDAB4101(0)005.R001.AF) was 0% each time. Besides, the “Average % injury 14 DAT” value stood at 10% in assay [2] (T1 pDAB4101(20)003, 1120 g ae/ha); 15% in assay [2] (T1 pDAB4101(20)003, 2240 g ae/ha); 23% in assay [2] (T1 pDAB4101(20)003, 4480 g ae/ha); 10% in assay [2] (T1 pDAB4101(27)002, 1120 g ae/ha); 30% in assay [2] (T1 pDAB4101(27)002, 2240 g ae/ha); 40% in assay [2] (T1 pDAB4101(27)002, 4480 g ae/ha). The “Average % injury 14 DAT” value in assay [3] (1120 g ae/ha) is on record as 20%; in assay [3] (2240 g ae/ha) it was 35%; in assay [3] (4480 g ae/ha), 50%.

In general, inhibition refers to the drop in the measured response relative to a control, in per cent. With `O=C(O)COc1nc(Cl)c(Cl)cc1Cl` [triclopyr], the “Rate relative to triclopyr” value in assay [4] (6.8 μg AAD-12 (v2), 1 mM substrate) is 1. In addition, in assay [4] (6.8 μg AAD-12 (v2), 1 mM substrate, 325 nm, background rate 1.4 mAU/min subtracted), the “Rate (mAU/min)” value amounted to 97 mAU/min. Besides, in assay [4] (read-out: Substrate inhibition at 2 mM), the inhibition at 2000 µM was 0%. In addition, in assay [4] (under maximal velocity conditions), the “rate of AAD-12 (v2) cleavage relative to that of 2,4-D” value was about 5%. In addition, the substrate inhibition result in assay [4] (up to 2 mM) is “No substrate inhibition”.

Take `O=C(O)COc1ccc(Cl)cc1Cl` [2,4-D, 2,4-dichlorophenoxyacetic acid]: the “2,4-D concentration beyond which bulked AAD-12 (v1) callus did not grow” value in assay [5] (20, 40, 60, 80, 100, and 120 mg/L 2,4-D tested) is at most 20 mg/L. For the same molecule, in assay [5] (LS-BY2C+dichlorprop medium), the “sub-lethal concentration of 2,4-D (above it lethal to the non-transformed cells)” value stood at 10 mg/L.
